Earlier results as cited in paper PMC6311893, “Computational prediction of plasma protein binding of cyclic peptides from small molecule experimental data using sparse modeling techniques” (BMC Bioinformatics, 2018).

System: plasma protein
Conditions: cited from earlier work

Row | Compound | PPB (fb)
1 | C=C1/C(=C\C=C2/CCC[C@]3(C)[C@@H]([C@H](C)CCCC(C)(C)O)CC[C@@H]23)C[C@@H](O)C[C@@H]1O [calcitriol] | 0.95

Same assay, conditions: fraction bound to plasma protein; small molecule dataset, sheet 1-SM (Set Dte = test, Dtr = training); ref Ingle et al.; cited from earlier work

Row | Compound | PPB (fb)
2 | [H]/N=C(\N/C(=N/[H])Nc1ccc(Cl)cc1)NC(C)C [chlorguanide] | 0.85
3 | CCN(CC)C(=S)SSC(=S)N(CC)CC [disulfiram] | 0.5
4 | Sc1ncnc2nc[nH]c12 [Mercaptopurine] | 0.17
5 | NC(=O)N1c2ccccc2C=Cc2ccccc21 [carbamazepine] | 0.75
6 | CCOc1nc2cccc(C(=O)OC(C)OC(=O)OC3CCCCC3)c2n1Cc1ccc(-c2ccccc2-c2nnn[nH]2)cc1 (stereo not shown) [Candesartan cilexetil] | 0.99
7 | CCOC(=O)C(C)(C)Oc1ccc(Cl)cc1 [clofibrate] | 0.96
8 | OC[C@H]1OC(O)[C@H](O)[C@@H](O)[C@@H]1O (stereo partly shown) [dextrose] | 0.3
9 | CC(C)(Oc1ccc(CCNC(=O)c2ccc(Cl)cc2)cc1)C(=O)O [bezafibrate] | 0.95
10 | CC12CCC3c4ccc(O)cc4CCC3C1CCC2O (stereo not shown) [17-a-estradiol] | 0.98
11 | CC1(C)SC2C(NC(=O)CC(N)c3cccs3)C(=O)N2C1C(=O)O (stereo not shown) [penicillin72] | 0.32
12 | OCCN(CCO)c1nc(N2CCCCC2)c2nc(N(CCO)CCO)nc(N3CCCCC3)c2n1 [dipyridamole] | 0.99
13 | CC1(C)SC2C(NC(=O)C(Cl)c3ccc(Cl)c(Cl)c3)C(=O)N2C1C(=O)O (stereo not shown) [penicillin25] | 0.97
14 | C[C@@H](O)[C@H]1C(=O)N2C(C(=O)O)=C(S[C@H]3C[C@@H](C(=O)N4CC[C@H](NC(=O)CNC(=N)N)C4)N(C)C3)[C@H](C)[C@H]12 [Tomopenem] | 0.09
15 | O=C1CCC(Cc2ccc(O)c(O)c2)O1 (stereo not shown) | 0.35
16 | Cc1ccsc1C(=CCCN1CCC[C@@H](C(=O)O)C1)c1sccc1C [Tiagabine] | 0.96
17 | CCCCCOC(=O)Nc1nc(=O)n([C@@H]2O[C@H](C)[C@@H](O)[C@H]2O)cc1F [capecitabine] | 0.3

Same assay, conditions: fraction bound to plasma protein; small molecule dataset, sheet 1-SM, Set Dtr; ref Ingle et al.; cited from earlier work

Row | Compound | PPB (fb)
18 | COCCNC(=O)CN(CCN(CCN(CC(=O)O)CC(=O)NCCOC)CC(=O)O)CC(=O)O [Gadoversetamide] | 0
19 | CCCNC(=O)NS(=O)(=O)c1ccc(Cl)cc1 [Chlorpropamide] | 0.96
20 | CCN(CC)CCNC(=O)c1ccc(N)cc1 [Procainamide] | 0.16
21 | Cc1cccc([C@H](C)c2cnc[nH]2)c1C [Dexmedetomidine] | 0.94
22 | COc1cccc(OC)c1C(=O)N[C@@H]1C(=O)N2[C@@H]1SC(C)(C)[C@@H]2C(=O)O [Methicillin] | 0.48
23 | OCCN1CCN(CC/C=C2/c3ccccc3Sc3ccc(Cl)cc32)CC1 [zuclopenthixol] | 0.98
24 | COc1ccc([C@]2(C#N)CC[C@@H](C(=O)O)CC2)cc1OC1CCCC1 [Cilomilast] | 0.99
25 | O=C1CN(/N=C/c2ccc([N+](=O)[O-])o2)C(=O)N1 [Nitrofurantoin] | 0.73
26 | COc1c(Cl)ccc(Cl)c1C(=O)O [Dicamba] | 0.9
27 | NNC(=O)c1ccncc1 [Isoniazid] | 0.01
28 | CN1CCN(C2=Nc3cc(Cl)ccc3Nc3ccccc32)CC1 [Clozapine] | 0.95
29 | CN1CCc2cccc3c2[C@H]1Cc1ccc(O)c(O)c1-3 [Apomorphine] | 0.94

Same assay, conditions: fraction bound to plasma protein; small molecule dataset, sheet 1-SM; ref Ingle et al.; cited from earlier work

Row | Compound | PPB (fb)
30 | O=P(O)(O)C(Sc1ccc(Cl)cc1)P(=O)(O)O [tiludronic acid] | 0.9
31 | NC(=O)N1c2ccccc2CC(=O)c2ccccc21 [oxcarbazepine] | 0.45
32 | O=c1[nH]c2ccccc2n1CCCN1CCN(C(c2ccccc2)c2ccccc2)CC1 [oxatomide] | 0.91
33 | C[C@@H](c1ncncc1F)[C@](O)(Cn1cncn1)c1ccc(F)cc1F [Voriconazole] | 0.58
34 | C[C@@H](O)[C@H]1C(=O)N2C(C(=O)O)=C(SCCOC(N)=O)S[C@H]12 [Sch34343] | 0.65
35 | O=C(O)c1ccccc1O [salicylate] | 0.85
36 | CC(NCCc1ccc(O)cc1)C(O)c1ccc(O)cc1 (stereo not shown) [Ritodrine] | 0.33
37 | COC(C(=O)NC1C(=O)N2C1SC(C)(C)C2C(=O)O)c1ccc(Cl)c(Cl)c1 (stereo not shown) [penicillin56] | 0.95
38 | CCOc1ccccc1OCCN[C@H](C)Cc1ccc(OC)c(S(N)(=O)=O)c1 [Tamsulosin] | 0.97
39 | O=C(CCCN1CC=C(n2c(=O)[nH]c3ccccc32)CC1)c1ccc(F)cc1 [droperidol] | 0.95
40 | O=C(OCC(O)CO)c1ccccc1Nc1ccnc2c(C(F)(F)F)cccc12 (stereo not shown) [floctafenine] | 0.85
41 | CC(C)OC(=O)OCOP(=O)(CO[C@H](C)Cn1cnc2c(N)ncnc21)OCOC(=O)OC(C)C [tenofovir disoproxil] | 0.07
42 | CC[C@]1(O)C[C@H]2CN(CCc3c([nH]c4ccccc34)[C@@](C(=O)OC)(c3cc4c(cc3OC)N(C=O)[C@H]3[C@@](O)(C(=O)OC)[C@H](OC(C)=O)[C@]5(CC)C=CCN6CC[C@]43[C@@H]65)C2)C1 [Vincristine] | 0.6
43 | CC(C)NC[C@H](O)COc1ccc(O)cc1 [prenalterol] | 0.04
44 | C=C1C[C@@H]2[C@H](CC[C@]3(C)C(=O)CC[C@@H]23)[C@@]2(C)C=CC(=O)C=C12 [exemestane] | 0.9
45 | CC1(C)SC2C(NC(=O)COc3ccccc3F)C(=O)N2C1C(=O)O (stereo not shown) [penicillin52] | 0.91
46 | O=P(O)(O)C(O)(Cn1ccnc1)P(=O)(O)O [Zoledronic Acid] | 0.22
47 | CC(C(=O)O)c1ccc(CC2CCCC2=O)cc1 (stereo not shown) [loxoprofen] | 0.96
48 | CC(C)(S)[C@@H](N)C(=O)O [penicillamine] | 0.8

Same assay, conditions: plasma; cited from earlier work

Row | Compound | PPB (fb)
49 | COC(=O)Nc1nc2ccccc2[nH]1 [carbendazim] | 0.67
50 | Nicardipine | 0.98
51 | COc1ccc2cc1Oc1cc3c(cc1OC)CC[N+](C)(C)[C@H]3Cc1ccc(cc1)Oc1c(OC)c(OC)cc3c1[C@@H](C2)[N+](C)(C)CC3 [Metocurine] | 0.35
52 | CC(=O)OC1CC(OC2C(O)CC(OC3C(O)CC(OC4CCC5(C)C(CCC6C5CCC5(C)C(C7=CC(=O)OC7)CCC65O)C4)OC3C)OC2C)OC(C)C1O (stereo not shown) [acetyldigitoxin] | 0.8
53 | CC[C@@H](CO)NC(=O)[C@@H]1C=C2c3cccc4c3c(cn4C)C[C@H]2N(C)C1 [methysergide] | 0.66
54 | c1ccc(C2(N3CCCCC3)CCCCC2)cc1 [Phencyclidine] | 0.68
55 | COc1ccc(Cc2nccc3cc(OC)c(OC)cc23)cc1OC [Papaverine] | 0.9
56 | acenocoumarol | 0.98
57 | O=C1CN=C(c2ccccc2)c2cc([N+](=O)[O-])ccc2N1 [Nitrazepam] | 0.87
58 | O=P1(N(CCCl)CCCl)NCCCO1 (stereo not shown) [Cyclophosphamide] | 0.15
59 | COc1ccc2c(C(=O)c3ccc(Cl)cc3)c(C)n(CC(=O)O)c2c1 [Clometacin] | 0.99
60 | Nimodipine | 0.98
61 | Isradipine | 0.95
62 | idoxuridine | 0
63 | C[C@@H]1O[C@@H](O[C@H]2C[C@@H](O)[C@]3(CO)[C@H]4[C@H](O)C[C@]5(C)[C@@H](C6=CC(=O)OC6)CC[C@]5(O)[C@@H]4CC[C@]3(O)C2)[C@H](O)[C@H](O)[C@H]1O [ouabain] | 0
64 | spironolactone | 0.98
